Measurements published in US12576059B2, “Methods and compositions for treatment of inflammatory disease” (priority 2021, dated 2026).

Tests used:
LPS-treated mice lungs = assay: Example 5: H-LA / D2-LA by oral gavage, then intranasal LPS, lung histology; type: in vivo, BALB/c mice; details: 6 weeks of H-LA or D2-LA, then 1 mg/kg intranasal LPS, 24 hours
Method: (§1) Lung, stomach and colon samples were fixed with 4% formaldehyde (freshly prepared from paraformaldehyde), paraffin embedded and cut into 2-4 μm sections. For routine histology, all fixed tissue sections were stained with hematoxylin-eosin (H&E). All slides were evaluated at 10 fields each using a Genetic Pro Bino light microscope (A) and photographed with a digital camera (Delta Optical). Stomach and colon tissue sections were analyzed for signs of active and chronic inflammation, formation of lymph follicles, and hyperplasia of epithelial cells. The severity of lung injury was scored according to lung pathological changes, including interalveolar and perivascular hemorrhages, peri-vascular and peribronchial infiltration, perivascular edema, thickness of alveolar wall, alveolar space value, and emphysematous transformations. Lung tissue samples were additionally stained with commercially available Martius Scarlet Blue (MSB) stain kit (Avantik, USA) for fibrin visualization. The presence of homogeneous fibrin masses of yellow, pink or red color in the lung blood vessels were interpreted as thrombotic masses.
In our first experiment, we evaluated the effects of linoleic acid (LA) supplementation on interalveolar septa thickness and AS in LPS-treated mice. […]

[1] = test system: LPS induced acute lung inflammation; assay: Example 1: LPS induced acute lung inflammation, interalveolar septa distance; type: in vivo, mice; details: for Interalveolar space (average spatial distance for the interalveolar septa): 6-week course, then single intranasal LPS
Text: LPS administration is known to promote inflammation through various mechanisms including secretion of pro-inflammatory cytokines, eicosanoids and induction of ROS. This example employed LPS to ascertain the extent of inflammation arising from ROS induced oxidation of H-AA versus D-AA in the lungs of mice. Specifically, four groups of mice were used. The first group was control mice treated with H-LA control mice. The second group of mice received a 6-week course of D-LA. It is understood that in vivo conversion of a portion of both H-LA and D-LA occurs to provide for AA and 13,13-D2-AA respectively. The third group of mice received a 6-week course of H-AA. The fourth group of mice received a 6-week course of D-AA. All groups then received a single intranasal administration of LPS to induce acute lung inflammation. The degree of the inflammatory response was based on the interalveolar septa distance where the larger the distance of the septa, the greater the degree of inflammation. The animals were sacrificed and the interalveolar septa distance was measured. Table 1 provides an average degree of spatial distance for the interalveolar septa for the results of all groups.

[2] = human, in vivo, po; cited from earlier work
[3] = test system: LPS induced acute lung inflammation; assay: Example 2: LPS induced inflammation, H-AA versus D-AA, male and female mice; type: in vivo; details: 6-week course, then single intranasal LPS
Method: LPS administration was conducted as per Example 1 above except that four groups of mice were used. The first two groups (1 and 2) were control mice (male and female). The next two groups (3 and 4) of mice received a 6-week course of H-AA (male and female). Finally, the last two groups (5 and 6) of mice received a 6-week course of D6-AA (second group). Groups 3, 4, 5 and 6 then received a single intranasal administration of LPS to induce acute lung inflammation. The degree of the inflammatory response was determined per Example 1. Next, the height and distance of the interalveolar septa was determined to provide for the surface area of the inflammation.

healthy mice = details: in vivo
Method: (§2) Mouse diet was from Research Diets (New Brunswick, NJ) based on fat-free AIN-93G. Fat was added at 11.3% by weight total fat and 0.25% either normal H-AA or D-AA respectively (Table 5).
Male and Female BALB/c and C57BL/6 mice were provided with standard environmental conditions i.e., 22±1° C., 55±5% humidity and 12 h light/dark cycle with free food and water access. At the age of six weeks, animals were split into 8 groups (n=160 total, 20 of each gender) and were continuously fed ad libitum on the diet containing either H-AA or D-AA for 2, 4, 6 or 8 weeks at the daily rate of ca. 5 g of diet per mouse for the duration of the study. The other two groups of animals (n=40, 20 of each gender) received neither PUFA-enriched diets nor LPS served as controls. The body weight and food intake were measured once a week. After completing the appropriate diet course, half of the mice in each group (10 females and 10 males) (i) underwent the procedure of bronchoalveolar lavage (BAL) to accomplish cytological smears, (ii) were subjected to tissue harvesting and collection of colon contents (after humane euthanasia with lethal dose of sodium thiopental, 100 mg/kg intravenously). On the ninth week of this diet course, the other half of the group was administered 1 mg/kg of intranasal (IN) LPS from Escherichia coli O111:B4 (Sigma Aldrich) 24 hours prior to BAL and subsequent euthanasia. 40 D-AA fed animals (20 males, 20 females) were switched to the H-AA diet for washout experiments. […]
as §1, with “masses. […]” for “masses.”
Cell free BAL fluid supernatants as well as colon tissue samples were analyzed using commercially available Mouse IL-1B ELISA Kit (R&D systems, Lot P265854, USA) and the Biotek ELx-808 microplate reader (Biotek, USA) according to the instructions recommended by the manufacturer).

[4] = test system: LPS-induced acute lung injury; assay: Example 5: response to intranasal LPS in mice fed AA diets (ALI model); type: in vivo, BALB/c and C57BL/6 mice
Method: as §2
Male and Female BALB/c and C57BL/6 mice were provided with standard environmental conditions i.e., 22±1° C., 55±5% humidity and 12 h light/dark cycle with free food and water access. At the age of six weeks, animals were split into 8 groups (n=160 total, 20 of each gender) and were continuously fed ad libitum on the diet containing either H-AA or D-AA for 2, 4, 6 or 8 weeks at the daily rate of ca. 5 g of diet per mouse for the duration of the study. The other two groups of animals (n=40, 20 of each gender) received neither PUFA-enriched diets nor LPS served as controls. The body weight and food intake were measured once a week. After completing the appropriate diet course, half of the mice in each group (10 females and 10 males) (i) underwent the procedure of bronchoalveolar lavage (BAL) to accomplish cytological smears, (ii) were subjected to tissue harvesting and collection of colon contents (after humane euthanasia with lethal dose of sodium thiopental, 100 mg/kg intravenously). On the ninth week of this diet course, the other half of the group was administered 1 mg/kg of intranasal (IN) LPS from Escherichia coli O111:B4 (Sigma Aldrich) 24 hours prior to BAL and subsequent euthanasia. 40 D-AA fed animals (20 males, 20 females) were switched to the H-AA diet for washout experiments.
Cell differential counts were performed on smear slides from resuspended cell pellets of BAL, using commercially available May-Grünwald-Giemsa staining kits. All slides were evaluated in a light microscope (Optec BK5000) at ×200 magnification. These cell counts such as lymphocytes, neutrophils, plasmacytes and macrophages were obtained from 10 fields of each slide.
as §1
We challenged mice fed AA-diets for 6 weeks using LPS treatment. […] Perivascular edema, signs of thrombosis, alveolar wall thickening, irregular distribution of air spaces, and focal areas of alveolar hemorrhage were also observed. We preferred intranasal administration to the more extreme intratracheal route that induces IL-1β which in turn amplifies inflammation making it difficult to distinguish between the early and late consequences of the LPS challenge. Indeed, 24 hours after intranasal administration of LPS at a dose of 1 mg/kg, there was no significant increase in the IL-1B content in BAL fluid or colon homogenates compared to animals not treated with LPS regardless of type or duration of the diets. Intranasal LPS 24 hours post administration increased neutrophils in BAL fluid in all treated groups regardless of gender or form of AA diets.

Structure (SMILES) | alveolar wall / interalveolar septum thickness (in words) (LPS-treated mice lungs) | Interalveolar space (average spatial distance for the interalveolar septa) [1] [μm] | reduction in the spatial distance for the interalveolar septa ([1]; D-LA relative to H-LA, comparator for D-AA not stated) [%] | safety record [2] | Interalveolar space ([3]; female mice) [μm] | Interalveolar surface area ([3]; female mice) [μm^2] | Interalveolar space ([3]; male mice) [μm] | Interalveolar surface area ([3]; male mice) [μm^2] | alveolar wall thickness, H-AA versus D-AA cohorts (healthy mice; both, BALB/c and C57BL/6, mouse, 8 weeks) | alveolar spaces (healthy mice; mouse) | average thickness of interalveolar septa, H-AA versus D-AA (healthy mice; mouse) | tolerability (healthy mice; mouse) | LPS-induced interalveolar septa / wall thickening (in words) ([4]; 6-week diet, then single intranasal LPS) | LPS-induced lung tissue damage, inflammation and emphysema (in words) ([4]; dietary consumption prior to LPS exposure)
[2H]C([2H])(/C=C\CCCCC)/C=C\CCCCCCCC(=O)O [D-LA, 11,11-D2-Linoleic Acid] | small, but statistically significant decrease | 10.7 | ~25 | impressive safety record | – | – | – | – | – | – | – | – | – | –
CCCCC/C=C\C/C=C\CCCCCCCC(=O)O [H-LA, linoleic acid] | significantly higher | 14.2 | – | – | – | – | – | – | – | – | – | – | – | –
CCCCC/C=C\C/C=C\C/C=C\C/C=C\CCCC(=O)O [H-AA, arachidonic acid, reference compound] | – | 9.1 | – | – | ~9.7 | ~380 | ~8.1 | ~540 | significantly (p≤0.05) thicker | No relevant changes | did not significantly differ | well tolerated without apparent adverse reactions | significantly increased | did not improve and even aggravated
